Data on 11 compounds can be found in patent publication US4959460A, “3'-deamino-3'-(2"-substituted-4"-morpholino)-anthracycline compounds” (priority 1988, dated 1990).

The subject of assay [1] is P388 mouse leukemia cells. The experiment in a line: Anti-proliferative activity against cultivated P388 mouse leukemia cells. The class given is cell-based. Particulars: P388 cells 5×10^4 cells/ml, RPMI 1640, 10% fetal bovine serum, 37° C., read-out: 50% proliferation-inhibitory concentration (IC50). As to the method: (1) Anti-proliferative activity against cultivated P388 mouse leukemia cells:
More specifically, a medium RPMI 1640 (Rosewell Park Memorial Institute medium 1640) containing a given amount of the 3'-deamino-3'-(2"-substituted-4"-morpholino) anthracycline compound and 10% fetal bovine serum was inoculated with cultivated P388 5×10^4 cells/ml. Incubation was carried out at 37° C. in a CO2 incubator, and the number of the cells in each medium was then counted to determine 50% proliferation-inhibitory concentration (IC50, ng/ml) relative to the control (no test compounds added).

For another assay, the system named is P388 leukemia. The assay is described as follows: Antitumor activity against P388 leukemia intraperitoneally transplanted into CDF2 mice. Type of assay: in vivo. Particulars: for T/C: control = 100. As to the method: The effects of the test anthracycline compounds are shown below in terms of T/C (%), the survival days of the control mice to which physiological saline solutions was administered being specified as 100.

[2] abbreviates: 0.25 mg/kg i.v., day 1 and day 5.
Setting [3] is: 0.5 mg/kg i.v., day 1 and day 5.
The mark [4] stands for this setting: 0.125 mg/kg i.v., day 1 and day 5.
Where [5] appears, read: 2 mg/kg i.v., administered only day 1.
[6] abbreviates: 4 mg/kg i.v., administered only day 1.
Setting [7] is: 1 mg/kg i.v., administered only day 1.
Setting [8] is: 16 mg/kg i.v., administered only day 1.
[9] abbreviates: 0.29 mg/kg i.v., day 1 and day 5.
The mark [10] stands for this setting: 0.44 mg/kg i.v., day 1 and day 5.
Where [11] appears, read: 0.66 mg/kg i.v., day 1 and day 5.
The mark [12] stands for this setting: 0.99 mg/kg i.v., day 1 and day 5.
Setting [13] is: 1.48 mg/kg i.v., day 1 and day 5.
[14] abbreviates: 2.22 mg/kg i.v., day 1 and day 5.
The mark [15] stands for this setting: 3.33 mg/kg i.v., day 1 and day 5.
[16] abbreviates: 5.00 mg/kg i.v., day 1 and day 5.

In brackets after ≈: the same amount, converted by molar mass.

For orientation: T/C means the result in the treated group divided by that in the control group, in per cent. `CC[C@@]1(O)C[C@H](O[C@H]2C[C@H](N3CCO[C@@H](N=[N+]=[N-])C3)[C@H](O)[C@H](C)O2)c2c(O)c3c(c(O)c2[C@H]1O)C(=O)c1cccc(O)c1C3=O` [3'-Deamino-3'-[(2"R)-2"-azido-4"-morpholino]-13-deoxo-10-hydroxycarminomycin]: the IC50 in assay [1] stood at 0.0189 µg/mL (≈ 0.0302 µM). The “Number of cured mice/Number of test mice” value is listed as 0/6 in the assay on P388 leukemia (setting [2]); 0/6 in the assay with P388 leukemia (setting [3]); 0/6 with P388 leukemia (1 mg/kg i.v., day 1 and day 5); 0/6 in the assay on P388 leukemia (2 mg/kg i.v., day 1 and day 5); 0/6 in the assay with P388 leukemia (4 mg/kg i.v., day 1 and day 5). Besides, the T/C in the assay on P388 leukemia (setting [2]) was 115%; in the assay on P388 leukemia (setting [3]), 163%; with P388 leukemia (1 mg/kg i.v., day 1 and day 5), 196%; in the assay with P388 leukemia (2 mg/kg i.v., day 1 and day 5) it was 294%; in the assay on P388 leukemia (4 mg/kg i.v., day 1 and day 5), 124%.

Consider `CC[C@@]1(O)C[C@H](O[C@H]2C[C@H](N3CCO[C@@H](OC)C3)[C@H](O)[C@H](C)O2)c2c(O)c3c(c(O)c2[C@H]1O)C(=O)c1cccc(O)c1C3=O` [3'-Deamino-3'-[(2"R)-2"-methoxy-4"-morpholino]-13-deoxo-10-hydroxycarminomycin], for which the IC50 in assay [1] came to 0.009 µg/mL (≈ 0.0146 µM). In addition, the “Number of cured mice/Number of test mice” value in the assay on P388 leukemia (setting [4]) is given as 0/6; in the assay on P388 leukemia (setting [2]) it was 0/6; with P388 leukemia (setting [3]), 0/6; in the assay on P388 leukemia (1 mg/kg i.v., day 1 and day 5) it was 0/6; in the assay with P388 leukemia (setting [5]), 0/6. The T/C with P388 leukemia (setting [4]) was found to be 119%; with P388 leukemia (setting [2]), 149%; in the assay with P388 leukemia (setting [3]), 172%; with P388 leukemia (1 mg/kg i.v., day 1 and day 5), 181%; in the assay on P388 leukemia (setting [5]) it was 36%.

On to `CC[C@@]1(O)C[C@H](O[C@H]2C[C@H](N3CCO[C@H](C)C3)[C@H](O)[C@H](C)O2)c2c(O)c3c(c(O)c2[C@H]1O)C(=O)c1cccc(O)c1C3=O` [3'-Deamino-3'-[(2"R)-2"-methyl-4"-morpholino]-13-deoxo-10-hydroxycarminomycin], for which the IC50 in assay [1] stood at 0.034 µg/mL (≈ 0.0567 µM).

Take `CC[C@@]1(O)C[C@H](O[C@H]2C[C@H](N3CCO[C@@H](NC(=O)C(F)(F)F)C3)[C@H](O)[C@H](C)O2)c2c(O)c3c(c(O)c2[C@H]1O)C(=O)c1cccc(O)c1C3=O` [3'-Deamino-3'-[(2"R)-2"-trifluoroacetamido-4"-morpholino]-13-deoxo-10-hydroxycarminomycin]: in assay [1], the IC50 was determined as 0.0225 µg/mL (≈ 0.0323 µM). The “Number of cured mice/Number of test mice” value in the assay on P388 leukemia (2 mg/kg i.v., day 1 and day 5) was 0/6; in the assay on P388 leukemia (4 mg/kg i.v., day 1 and day 5), 0/6; in the assay on P388 leukemia (8 mg/kg i.v., day 1 and day 5) it was 0/6; in the assay with P388 leukemia (16 mg/kg i.v., day 1 and day 5), 2/6. Besides, the T/C is recorded as 120% in the assay with P388 leukemia (2 mg/kg i.v., day 1 and day 5); 150% with P388 leukemia (4 mg/kg i.v., day 1 and day 5); 165% with P388 leukemia (8 mg/kg i.v., day 1 and day 5); 319% in the assay with P388 leukemia (16 mg/kg i.v., day 1 and day 5).

For `CC[C@@]1(O)C[C@H](O[C@H]2C[C@H](N3CCO[C@H](CO)C3)[C@H](O)[C@H](C)O2)c2c(O)c3c(c(O)c2[C@H]1O)C(=O)c1cccc(O)c1C3=O` [3'-Deamino-3'-[(2"S) -2"-hydroxymethyl-4"-morpholino]-13-deoxo-10-hydroxycarminomycin], the IC50 in assay [1] worked out at 0.02 µg/mL (≈ 0.0325 µM).

`CC[C@@]1(O)C[C@H](O[C@H]2C[C@H](N3CCO[C@H](NC(C)=O)C3)[C@H](O)[C@H](C)O2)c2c(O)c3c(c(O)c2[C@H]1O)C(=O)c1cccc(O)c1C3=O` [3'-Deamino-3'-[(2"S)-2"-acetamido-4"-morpholino]-13-deoxo-10-hydroxycarminomycin]: the IC50 in assay [1] was found to be 0.083 µg/mL (≈ 0.129 µM). Also, the “Number of cured mice/Number of test mice” value was 0/6 with P388 leukemia (2 mg/kg i.v., day 1 and day 5); 0/6 in the assay on P388 leukemia (4 mg/kg i.v., day 1 and day 5); 0/6 with P388 leukemia (8 mg/kg i.v., day 1 and day 5); 0/6 in the assay on P388 leukemia (16 mg/kg i.v., day 1 and day 5). Further, the T/C was found to be 124% in the assay on P388 leukemia (2 mg/kg i.v., day 1 and day 5); 124% in the assay with P388 leukemia (4 mg/kg i.v., day 1 and day 5); 146% with P388 leukemia (8 mg/kg i.v., day 1 and day 5); 340% with P388 leukemia (16 mg/kg i.v., day 1 and day 5).

Regarding `CC[C@@]1(O)C[C@H](O[C@H]2C[C@H](N3CCO[C@H](N=[N+]=[N-])C3)[C@H](O)[C@H](C)O2)c2c(O)c3c(c(O)c2[C@H]1O)C(=O)c1cccc(O)c1C3=O` [3'-Deamino-3'-[(2"S)-2"-azido-4"-morpholino]-13-deoxo-10-hydroxycarminomycin], the IC50 in assay [1] was determined as 0.024 µg/mL (≈ 0.0383 µM). The “Number of cured mice/Number of test mice” value in the assay with P388 leukemia (setting [3]) was 0/6; in the assay on P388 leukemia (1 mg/kg i.v., day 1 and day 5), 0/6; in the assay with P388 leukemia (2 mg/kg i.v., day 1 and day 5) it was 0/6; with P388 leukemia (setting [6]), 1/6. Also, the T/C came to 122% with P388 leukemia (setting [3]); 163% in the assay on P388 leukemia (1 mg/kg i.v., day 1 and day 5); 231% in the assay with P388 leukemia (2 mg/kg i.v., day 1 and day 5); 355% with P388 leukemia (setting [6]).

As for `CC[C@@]1(O)C[C@H](O[C@H]2C[C@H](N3CCO[C@H](CCl)C3)[C@H](O)[C@H](C)O2)c2c(O)c3c(c(O)c2[C@H]1O)C(=O)c1cccc(O)c1C3=O` [3'-Deamino-3'-[(2"S)-2"-chloromethyl-4"-morpholino]-13-deoxo-10-hydroxycarminomycin], the IC50 in assay [1] turned out to be 0.036 µg/mL (≈ 0.0568 µM).

In the case of `CC[C@@]1(O)C[C@H](O[C@H]2C[C@H](N3CCO[C@H](OC)C3)[C@H](O)[C@H](C)O2)c2c(O)c3c(c(O)c2[C@H]1O)C(=O)c1cccc(O)c1C3=O` [3'-Deamino-3'-[(2"S)-2"-methoxy-4"-morpholino]-13-deoxo-10-hydroxycarminomycin], the IC50 in assay [1] is 0.018 µg/mL (≈ 0.0292 µM). The “Number of cured mice/Number of test mice” value with P388 leukemia (setting [4]), with P388 leukemia (setting [2]), with P388 leukemia (setting [3]) and with P388 leukemia (setting [7]) was 0/6 throughout. The T/C is 103% in the assay on P388 leukemia (setting [4]), 182% in the assay with P388 leukemia (setting [2]), 196% in the assay with P388 leukemia (setting [3]) and 182% in the assay on P388 leukemia (setting [7]).

On to `CC[C@@]1(O)C[C@H](O[C@H]2C[C@H](N3CCO[C@H](NC(=O)C(F)(F)F)C3)[C@H](O)[C@H](C)O2)c2c(O)c3c(c(O)c2[C@H]1O)C(=O)c1cccc(O)c1C3=O` [3'-Deamino-3'-[(2"S)-2"-trifluoroacetamido-4"-morpholino]-13-deoxo-10-hydroxycarminomycin], for which the IC50 in assay [1] worked out at 0.052 µg/mL (≈ 0.0746 µM). In addition, the “Number of cured mice/Number of test mice” value in the assay on P388 leukemia (2 mg/kg i.v., day 1 and day 5) is recorded as 0/6; in the assay with P388 leukemia (4 mg/kg i.v., day 1 and day 5) it was 0/6; in the assay with P388 leukemia (8 mg/kg i.v., day 1 and day 5) it was 0/6; in the assay on P388 leukemia (setting [8]), 0/6. The T/C with P388 leukemia (2 mg/kg i.v., day 1 and day 5) stood at 136%; in the assay on P388 leukemia (4 mg/kg i.v., day 1 and day 5), 181%; with P388 leukemia (8 mg/kg i.v., day 1 and day 5), 229%; with P388 leukemia (setting [8]) it was 263%.

For the compound `CC[C@@]1(O)C[C@H](O[C@H]2C[C@H](N3CCOCC3)[C@H](O)[C@H](C)O2)c2c(O)c3c(c(O)c2[C@H]1O)C(=O)c1cccc(O)c1C3=O` [3'Deamino-3'-morpholino-R20X2, reference compound], the “Number of cured mice/Number of test mice” value in the assay on P388 leukemia (setting [9]), in the assay on P388 leukemia (setting [10]), in the assay with P388 leukemia (setting [11]), in the assay with P388 leukemia (setting [12]), in the assay with P388 leukemia (setting [13]) and in the assay with P388 leukemia (setting [14]) was 0/6 throughout. Further, the “Number of cured mice/Number of test mice” value in the assay on P388 leukemia (setting [15]) and in the assay on P388 leukemia (setting [16]) was 0/6 in each case. Besides, the T/C is 110% with P388 leukemia (setting [9]); 143% in the assay on P388 leukemia (setting [10]); 162% in the assay with P388 leukemia (setting [11]); 173% in the assay on P388 leukemia (setting [12]); 189% in the assay with P388 leukemia (setting [13]); 189% in the assay on P388 leukemia (setting [14]). Besides, the T/C in the assay on P388 leukemia (setting [15]) came out at 240%; with P388 leukemia (setting [16]) it was 135%.
